pIC50: −log10 of the molar value.

These results are taken from patent US9902713B2, “Neuroprotective compounds and use thereof” (BOARD OF REGENTS OF THE UNIVERSITY OF TEXAS SYSTEM, priority 2013, dated 2018).

Test [1] concerns hippocampal CA1 Schaffer-collateral pathway. In words: Hippocampal electrophysiology (LTP, PPF) after blast-mediated TBI. Format: in vivo, mice. How it is done: To test our hypothesis that performance in the Barnes maze was associated with hippocampal function, we investigated synaptic plasticity in the hippocampus. Specifically, we measured both long-term potentiation (LTP) and paired pulse facilitation (PPF) in brain slices derived from mice exposed to blast-injury as a function of treatment with different doses of P7C3-S243 for 9 days, initiated 24 hours after injury, in animals not subjected to behavioral testing. The stimulating electrode activated CA3 Schaeffer collateral axons, and the recording electrode was placed in the stratum radiatum of the CA1 region, where Schaffer collateral axons synapse with dendrites from CA1 pyramidal cells. […] Thus, dose-dependent protective efficacy of P7C3-S243 in behavioral tasks of learning and memory correlated with hippocampal function.
Electrophysiology. Single-housed, naïve 7- to 9-week-old male C57BL/6J mice received intraperitoneal injections of P7C3-S243 (0.3, 3, or 30 mg/kg/day) or vehicle 24 h following a single sham- or blast-Injury. On the tenth day after injury, coronal hippocampal slices (400 μm) were prepared, in accordance with the University of Iowa guidelines. Briefly, hippocampal slices were cut using a Vibratome 1000 Plus (Vibratome, St. Louis, Mo.) in ice-cold slicing buffer (in mM: 127 NaCl, 26 NaHCO3, 1.2 KH2PO4, 1.9 KCl, 1.1 CaCl2, 2 MgSO4, 10 D-Glucose) bubbled with 95% 02 and 5% CO2. Slices were then transferred to a holding chamber containing oxygenated artificial cerebrospinal fluid (ACSF; in mM: 127 NaCl, 26 NaHCO3, 1.2 KH2PO4, 1.9 KCl, 2.2 CaCl2, 1 MgSO4, 10 D-Glucose) for 30 min at 34 C and for another 30 min at 22° C. for recovery, and then transferred to a submersion recording chamber continually perfused with 32° C. oxygenated ACSF (rate: 2 ml/min). Slices were equilibrated for at least 15 min before each recording.
ACSF-filled glass electrodes (resistance <1 MΩ) were positioned in the stratum radiatum of area CA1 for extracellular recording. Synaptic responses were evoked by stimulating Schaffer collaterals with 0.2 ms pulses once every 15 s. […] Experiments with maximal fEPSPs of less than 0.5 mV, with large fiber volleys, or with substantial changes in the fiber volley during recording were rejected. LTP was induced by 12TBS (12 bursts, each of 4 pulses at 100 Hz).
Field EPSPs were recorded (AxoClamp 900A amplifier, Axon Instruments, Foster City, Calif.), filtered at 1 kHz, digitized at 10 kHz (Axon Digidata 1440), and stored for off-line analysis (Clampfit 10). Initial slopes of fEPSPs were expressed as percentages of baseline averages. In summary graphs, each point represents the average of 4 consecutive responses. The time-matched, normalized data were averaged across experiments.

The next test deals with H2122. In words: Toxicity towards human cancer cell line. Format: cell-based. The conditions noted are these: NCI-H2122.
A further test deals with blast-injured mice. In words: Barnes maze, treatment begun 10 months after blast injury. Format: in vivo. The text has this:
After 8 weeks of treatment, mice were completely withdrawn from treatment with vehicle or compound.

Take `COc1cccc(NCC(F)Cn2c3ccc(Br)cc3c3cc(Br)ccc32)n1` (racemic) [P7C3-S243, N-(3-(3,6-dibromo-9H-carbazol-9-yl)-2-fluoropropyl)-6-methoxypyridin-2-amine]: the “blast-induced LTP deficit” value in test [1] (0.3 mg/kg/d from 24 hours after injury) is given as “not rescued”; in test [1] (3 and 30 mg/kg/d from 24 hours after injury), “rescued”. Further, in test [1] (0.3 mg/kg/day), the “blast-induced deficits in LTP and PPF” value is “had no effect”. Further, the “blast-induced PPF deficit, 50 ms inter-pulse interval” value in test [1] (3 and 30 mg/kg/d) was “rescued”.
`COc1cccc(NCC(F)Cn2c3ccc(Br)cc3c3cc(Br)ccc32)n1` (single isomer, unassigned; (-)) [(−)-P7C3-S243, (−)-N-(3-(3,6-dibromo-9H-carbazol-9-yl)-2-fluoropropyl)-6-methoxypyridin-2-amine] gave a negative-log IC50 (pIC50) in the test on H2122 of under 5.00. For the same compound, the “time spent in the escape area” value in the test with blast-injured mice (3 mg/kg/day begun 10 months after injury, after 4 and 8 weeks) is “sustained improvement in cognitive function”. Moreover, the “cognition relative to vehicle group after withdrawal” value in the test with blast-injured mice (after 8 weeks of treatment, then withdrawn) was “sustained improvement in cognition”.
